The assay concerns monocyte-free human T cells. Nature of the assay: Inhibition of 5-HT-dependent T Cell Proliferation. Format: cell-based. The following applies: PWM (1:200) and 5-HT (100 μm), 7 days, 3H-thymidine incorporation, 33 μM-0.1 μM. From the text:
The in vitro activity of the compounds according to the invention results from their capability to inhibit T cell proliferation, which is previously stimulated by serotonin.
Inhibition of 5-HT-dependent T Cell Proliferation
Peripheral mononuclear blood cells (PBMC) are obtained from the buffy coat of the blood of healthy subjects. After isolation by means of isolymph gradients (Pharmacia), the PBMC are washed twice and used directly. Purified T cells are obtained by E rosette formation with sheep erythrocytes [cf. Blue, M. L., J. F. Daley, H. Levine, K. A. Craig and S. F. Schlossmann, 1986, Biosynthesis and surface expression of T8 by peripheral blood T4+ cells in vitro, J. Immunol. 137, 1202]. Monocytes are partially removed by adhesion to tissue culture plates or flasks. […] The cultures are treated with 1 μCi of ^3 H-thymidine for 6 h on the 7th day and collected on filter paper, and the incorporated radioactivity is determined by means of liquid scintillation counting.
The test substances are dissolved in 10 mM HCl in order to achieve a final concentration of 1 mM in each case. […] The inhibitory activity of the test substances is expressed as the IC50 in μM. […]
(Incorporation of labelled thymidine or its analogues reports DNA synthesis.)

A word on the IC50: it is the concentration that inhibits the measured activity by half. Lower therefore signals higher potency. Take `O=C1CC2(CC3c4ccccc4C2c2ccccc23)C(=O)N1CCCN1CCN(c2ccc(F)cc2)CC1` (centres unmarked) [Example 1, 1'-{3-[4-(4-Fluorophenyl)-piperazin-1-yl]-propyl}-9,10-dihydro-9,10-ethano-anthracene-11-spiro-3'-pyrrolidine-2',5'-dione]: inhibition was half-maximal at 2 µM (IC50).

Regarding `O=C1CC2(CC3c4ccccc4C2c2ccccc23)C(=O)N1CCCN1CCN(c2ccccc2)CC1` (centres unmarked) [Example 2], 5 µM corresponded to half-maximal inhibition (IC50).

The values are drawn from patent publication US5461054A, “Anthracene-spiro-pyrrolindines” (Bayer Aktiengesellschaft, priority 1993, dated 1995).
